Experimental data as given in patent publication US11912693B2, “Compounds for modulating S1P1 activity and methods of using the same” (TREVENA, INC., priority 2017, dated 2024).

What was measured:
[1] = target: T1, human sphingosine-1-phosphate receptor 1 (S1P1) (Homo sapiens (Human), UniProt P21453); assay: Inhibition of cAMP production (HTRF cAMP HiRange), S1P1 CHO-K1 cells; format: cell-based; details: for hS1P1 cAMP pEC50 / EC50: inhibition of cAMP production, S1P1 CHO-K1 cells; for Emax: CHO-K1, efficacy (SPAN) normalized to fingolimod, read-out: hS1P1 cAMP SPAN; for EC50: read-out: hS1P1 cAMP pEC50 (converted)
Outline: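 CHO-K1 cells stably co-expressing human S1P1 (C-terminal Prolink tag) and EA-β-arrestin2 were grown in AssayComplete Media 6 at 37° C. and 5% CO2, plated, and incubated overnight. Agonist-driven inhibition of intracellular cAMP was read by TR-FRET with the HTRF cAMP HiRange kit on a PheraStar reader. Potency is pEC50, and efficacy (SPAN) is normalized to fingolimod.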
Target sequence in this assay (P21453 whole entry, looked up): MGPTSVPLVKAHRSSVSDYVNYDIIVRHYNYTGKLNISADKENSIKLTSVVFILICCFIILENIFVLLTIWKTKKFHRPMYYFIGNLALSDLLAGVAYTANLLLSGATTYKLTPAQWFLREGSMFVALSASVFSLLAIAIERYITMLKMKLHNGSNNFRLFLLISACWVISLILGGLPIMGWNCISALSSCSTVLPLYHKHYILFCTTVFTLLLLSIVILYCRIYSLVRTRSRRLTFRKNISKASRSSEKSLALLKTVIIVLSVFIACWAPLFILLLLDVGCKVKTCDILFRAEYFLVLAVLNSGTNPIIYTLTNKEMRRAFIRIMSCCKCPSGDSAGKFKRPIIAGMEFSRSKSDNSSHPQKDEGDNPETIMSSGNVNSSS

[2] = target: T1, human sphingosine-1-phosphate receptor 1 (S1P1); assay: β-Arrestin2 recruitment assay (PathHunter), S1P1 CHO-K1 cells; format: cell-based; details: for hS1P1 B-arrestin2 pEC50 / EC50: β-arrestin2 recruitment, S1P1 CHO-K1 cells; for Emax: CHO-K1, efficacy (SPAN) normalized to fingolimod, read-out: hS1P1 B-arrestin2 SPAN; for EC50: read-out: hS1P1 B-arrestin2 pEC50 (converted)
Outline: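 Enzyme-fragment complementation read-out: agonist-driven β-arrestin2 binding to ProLink-tagged human S1P1 in stable CHO-K1 cells restores β-galactosidase, measured 1 h at room temperature after a 60 min 37° C. compound incubation. Potency as pEC50, efficacy relative to fingolimod (SPAN).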
Target sequence in this assay (P21453 whole entry, looked up): as above
Target sequence in this assay (P32121 whole entry partner, looked up): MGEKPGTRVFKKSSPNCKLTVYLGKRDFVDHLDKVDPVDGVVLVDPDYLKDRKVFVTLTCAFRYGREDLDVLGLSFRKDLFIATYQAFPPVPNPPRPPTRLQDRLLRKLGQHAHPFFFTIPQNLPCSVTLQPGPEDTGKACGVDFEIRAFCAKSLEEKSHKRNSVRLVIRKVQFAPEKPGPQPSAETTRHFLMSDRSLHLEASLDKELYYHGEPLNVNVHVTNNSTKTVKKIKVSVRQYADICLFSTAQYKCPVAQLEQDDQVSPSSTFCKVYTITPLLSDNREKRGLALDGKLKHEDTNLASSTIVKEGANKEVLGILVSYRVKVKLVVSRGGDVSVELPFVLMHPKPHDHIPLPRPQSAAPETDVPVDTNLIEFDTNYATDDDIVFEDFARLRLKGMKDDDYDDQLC

| hS1P1 cAMP pEC50 [1] | hS1P1 B-arrestin2 pEC50 [2] | Emax [1] [%] | Emax [2] [%] | EC50 [1] [µM] | EC50 [2] [µM] | SMILES |
| --- | --- | --- | --- | --- | --- | --- |
| >6.5 | >5 |  |  |  |  | CC(C)Nc1ccc(-c2nnc(-c3ccc4c(c3)CCC(=O)N4)o2)cc1C#N [Compound 473, 5-[5-(2-oxo-1,2,3,4-tetrahydroquinolin-6-yl)-1,3,4-oxadiazol-2-yl]-2-[(propan-2-yl)amino]benzonitrile] |
| <6.5 | <5 | > 75 | > 75 |  |  | CC(C)n1nnc2cc(-c3nc(-c4ccccn4)co3)ccc21 [Compound 474, 1-(propan-2-yl)-5-[4-(pyridin-2-yl)-1,3-oxazol-2-yl]-1H-1,2,3-benzotriazole] |
| >6.5 | >5 |  |  |  |  | N#Cc1cc(-c2nnc(-c3ccc4c(c3)CCC(=O)N4)o2)ccc1NCC1CC1 [Compound 475, 2-[(cyclopropylmethyl)amino]-5-[5-(2-oxo-1,2,3,4-tetrahydroquinolin-6-yl)-1,3,4-oxadiazol-2-yl]benzonitrile] |
| >6.5 | >5 |  |  |  |  | N#Cc1cc(-c2nnc(-c3ccc4c(c3)CCC(=O)N4)o2)ccc1NCCF [Compound 476, 2-[(2-fluoroethyl)amino]-5-[5-(2-oxo-1,2,3,4-tetrahydroquinolin-6-yl)-1,3,4-oxadiazol-2-yl]benzonitrile] |
| >6.5 | >5 |  |  |  |  | N#Cc1cc(-c2nnc(-c3ccc4c(c3)CCC(=O)N4)o2)ccc1NCC(F)F [Compound 477, 2-[(2,2-difluoroethyl)amino]-5-[5-(2-oxo-1,2,3,4-tetrahydroquinolin-6-yl)-1,3,4-oxadiazol-2-yl]benzonitrile] |
| <6.5 | <5 |  |  |  |  | O=C1CC(CO)(CO)Oc2ccc(-c3nc(-c4cccnc4)no3)cc21 [Compound 478, 2,2-bis(hydroxymethyl)-6-[3-(pyridin-3-yl)-1,2,4-oxadiazol-5-yl]-3,4-dihydro-2H-1-benzopyran-4-one] |
| <6.5 | <5 |  |  |  |  | O=C1c2cc(-c3nc(-c4cccnc4)no3)ccc2OC(CO)(CO)C1Br (centres unmarked) [Compound 479, 3-bromo-2,2-bis(hydroxymethyl)-6-[3-(pyridin-3-yl)-1,2,4-oxadiazol-5-yl]-3,4-dihydro-2H-1-benzopyran-4-one] |
| <6.5 | <5 |  |  |  |  | CC1(C)Oc2ccc(-c3nc(-c4ccncc4)no3)cc2C1=O [Compound 480, 2,2-dimethyl-5-[3-(pyridin-4-yl)-1,2,4-oxadiazol-5-yl]-2,3-dihydro-1-benzofuran-3-one] |
| <6.5 | >5 |  |  |  |  | CC1(C)Oc2ccc(-c3nc(-c4cccnc4)no3)cc2C1=O [Compound 481, 2,2-dimethyl-5-[3-(pyridin-3-yl)-1,2,4-oxadiazol-5-yl]-2,3-dihydro-1-benzofuran-3-one] |
| <6.5 | <5 |  |  |  |  | O=C1CC(CO)(CO)Oc2ccc(-c3nc(-c4ccncc4)no3)cc21 [Compound 482, 2,2-bis(hydroxymethyl)-6-[3-(pyridin-4-yl)-1,2,4-oxadiazol-5-yl]-3,4-dihydro-2H-1-benzopyran-4-one] |
| <6.5 | <5 |  |  |  |  | O=C1c2cc(-c3nc(-c4ccncc4)no3)ccc2OC(CO)(CO)C1Br (centres unmarked) [Compound 483, 3-bromo-2,2-bis(hydroxymethyl)-6-[3-(pyridin-4-yl)-1,2,4-oxadiazol-5-yl]-3,4-dihydro-2H-1-benzopyran-4-one] |
| >6.5 | >5 |  |  |  |  | CC(C)Nc1ccc(-c2nnc(-c3ccc4[nH]c(=O)oc4c3)o2)cc1C#N [Compound 484, 5-[5-(2-oxo-2,3-dihydro-1,3-benzoxazol-6-yl)-1,3,4-oxadiazol-2-yl]-2-[(propan-2-yl)amino]benzonitrile] |
| >6.5 | <5 |  |  |  |  | CCC1(CC)CC(=O)c2cc(-c3nc(-c4cc[nH]c4)no3)ccc2O1 [Compound 485, 6-(3-(1H-pyrrol-3-yl)-1,2,4-oxadiazol-5-yl)-2,2-diethylchroman-4-one] |
| >6.5 | <5 |  |  |  |  | N#Cc1cc(-c2nnc(-c3ccc4[nH]c(=O)oc4c3)o2)ccc1NCC1CC1 [Compound 486, 2-[(cyclopropylmethyl)amino]-5-[5-(2-oxo-2,3-dihydro-1,3-benzoxazol-6-yl)-1,3,4-oxadiazol-2-yl]benzonitrile] |
| <6.5 | >5 |  |  |  |  | N#Cc1cc(-c2nnc(-c3ccc4[nH]c(=O)oc4c3)o2)ccc1NCCF [Compound 487, 2-[(2-fluoroethyl)amino]-5-[5-(2-oxo-2,3-dihydro-1,3-benzoxazol-6-yl)-1,3,4-oxadiazol-2-yl]benzonitrile] |
| >6.5 | >5 |  |  |  |  | N#Cc1cc(-c2nnc(-c3ccc4[nH]c(=O)oc4c3)o2)ccc1NCC(F)F [Compound 488, 2-[(2,2-difluoroethyl)amino]-5-[5-(2-oxo-2,3-dihydro-1,3-benzoxazol-6-yl)-1,3,4-oxadiazol-2-yl]benzonitrile] |
|  |  | > 75 | > 75 | < 0.316 | < 10 | Cc1cc(-c2noc(-c3ccc4c(c3)nnn4C(C)C)n2)c(C)o1 [Compound 490, 5-[3-(2,5-dimethylfuran-3-yl)-1,2,4-oxadiazol-5-yl]-1-(propan-2-yl)-1H-1,2,3-benzotriazole] |
| <6.5 | <5 | > 75 | > 75 |  |  | Cc1occc1-c1noc(-c2ccc3c(c2)nnn3CC(C)(C)O)n1 [Compound 492, 2-methyl-1-{5-[3-(2-methylfuran-3-yl)-1,2,4-oxadiazol-5-yl]-1H-1,2,3-benzotriazol-1-yl}propan-2-ol] |
|  |  | > 75 | > 75 | > 0.316 | > 10 | Cc1cc(-c2noc(-c3ccc4c(c3)nnn4CC(C)(C)O)n2)c(C)o1 [Compound 493, 1-{5-[3-(2,5-dimethylfuran-3-yl)-1,2,4-oxadiazol-5-yl]-1H-1,2,3-benzotriazol-1-yl}-2-methylpropan-2-ol] |
| <6.5 | >5 |  |  |  |  | COCC1(COC)CC(=O)c2cc(-c3nc(-c4ccncc4)no3)ccc2O1 [Compound 494, 2,2-bis(methoxymethyl)-6-[3-(pyridin-4-yl)-1,2,4-oxadiazol-5-yl]-3,4-dihydro-2H-1-benzopyran-4-one] |
| >6.5 | >5 |  |  |  |  | CCC1(CC)CC(=O)c2cc(-c3nc(-c4ccoc4)no3)ccc2O1 [Compound 495, 2,2-diethyl-6-(3-(furan-3-yl)-1,2,4-oxadiazol-5-yl)chroman-4-one] |
|  |  | > 75 | > 75 | < 0.316 | < 10 | CC(C)n1nnc2cc(-c3nc(-c4cccnc4Cl)no3)ccc21 [Compound 499, 5-[3-(2-chloropyridin-3-yl)-1,2,4-oxadiazol-5-yl]-1-(propan-2-yl)-1H-1,2,3-benzotriazole] |
| <6.5 | <5 |  |  |  |  | CCC1(CC)CC(=O)c2cc(-c3nc(-c4ccc5nonc5c4)no3)ccc2O1 [Compound 500, 6-[3-(2,1,3-benzoxadiazol-5-yl)-1,2,4-oxadiazol-5-yl]-2,2-diethyl-3,4-dihydro-2H-1-benzopyran-4-one] |
